# Biological target: T1, Thrombus (Rattus norvegicus, UniProt P02680+P06399+P14480)
# T1 construct: thrombin cleaves fibrinopeptides on fibrinogen resulting in an end-to-end polymerization to give the polymer fibrin; A day old autologous blood clot was injected into the right internal carotid artery; from tissue; host or cells: autologous blood clot in the right internal carotid artery of Wistar rats
# T1 sequence (P06399 37-550 isoform P06399-2 limits assumed): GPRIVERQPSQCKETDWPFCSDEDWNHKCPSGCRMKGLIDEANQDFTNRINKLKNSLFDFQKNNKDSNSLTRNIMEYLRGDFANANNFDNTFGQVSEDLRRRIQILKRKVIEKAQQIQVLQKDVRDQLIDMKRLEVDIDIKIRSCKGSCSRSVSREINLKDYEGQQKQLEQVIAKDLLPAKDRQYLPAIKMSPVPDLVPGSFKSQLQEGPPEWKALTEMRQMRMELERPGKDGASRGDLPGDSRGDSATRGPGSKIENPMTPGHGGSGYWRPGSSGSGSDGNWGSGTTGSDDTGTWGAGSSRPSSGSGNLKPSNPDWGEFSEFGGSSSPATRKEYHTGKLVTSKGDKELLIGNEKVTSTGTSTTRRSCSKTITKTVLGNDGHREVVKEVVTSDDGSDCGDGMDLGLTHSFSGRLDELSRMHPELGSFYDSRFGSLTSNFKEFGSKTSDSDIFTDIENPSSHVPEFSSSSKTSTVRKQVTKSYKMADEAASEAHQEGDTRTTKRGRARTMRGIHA
# T1 sequence (P14480 33-479 limits assumed): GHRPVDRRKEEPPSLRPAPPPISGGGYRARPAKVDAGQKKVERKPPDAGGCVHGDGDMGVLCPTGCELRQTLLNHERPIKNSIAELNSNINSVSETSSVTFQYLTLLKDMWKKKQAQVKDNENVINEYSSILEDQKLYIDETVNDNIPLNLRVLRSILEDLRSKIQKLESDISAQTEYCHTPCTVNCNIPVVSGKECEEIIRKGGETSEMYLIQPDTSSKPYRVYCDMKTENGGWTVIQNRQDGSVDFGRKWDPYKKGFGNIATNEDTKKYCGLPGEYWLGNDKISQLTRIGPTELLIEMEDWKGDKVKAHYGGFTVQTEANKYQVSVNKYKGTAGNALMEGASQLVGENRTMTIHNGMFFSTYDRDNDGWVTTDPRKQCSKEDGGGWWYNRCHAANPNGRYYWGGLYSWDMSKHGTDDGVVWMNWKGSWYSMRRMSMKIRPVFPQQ
# T1 sequence (P02680 26-437 isoform P02680-2 limits assumed): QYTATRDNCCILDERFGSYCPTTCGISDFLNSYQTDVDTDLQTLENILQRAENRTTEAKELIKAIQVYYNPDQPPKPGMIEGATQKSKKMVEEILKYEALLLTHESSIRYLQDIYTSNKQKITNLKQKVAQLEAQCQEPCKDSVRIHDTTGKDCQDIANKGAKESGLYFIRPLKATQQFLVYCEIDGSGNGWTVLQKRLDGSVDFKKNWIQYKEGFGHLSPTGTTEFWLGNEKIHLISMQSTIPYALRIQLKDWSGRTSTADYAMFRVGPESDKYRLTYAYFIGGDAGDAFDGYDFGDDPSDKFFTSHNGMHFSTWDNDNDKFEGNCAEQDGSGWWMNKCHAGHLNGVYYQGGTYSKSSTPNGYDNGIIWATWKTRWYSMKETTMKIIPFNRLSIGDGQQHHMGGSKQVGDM
# Type: in vivo
# Conditions: ex vivo, 2 h post-injection
# Procedure: All animal studies were approved by the Subcommittee on Research Animal Care at Massachusetts General Hospital. The occlusive thrombus model was described previously (Zhang R L, Chopp M, Zhang Z G, Jiang Q, and Ewing J R., Brain Res. 1997 766(1-2):83-92). Briefly, male Wistar rats (350-400 g, n=8; Charles River Laboratories, Wilmington, Mass.) were anaesthetized with isoflurane (1-2% in 70% N2O and 30% O2) and body temperature was kept at 37.5° C. A day old autologous blood clot was injected into the right internal carotid artery (ICA) at the level of the middle cerebral artery (MCA). The femoral vein was cannulated for intravenous delivery of the contrast agent. […]
# The ipsilateral (containing the thrombus) and contralateral ICA and MCA, cerebral hemispheres, blood, urine, intraabdominal organs, rectus femoris muscle and femur bone were collected from all the animals, weighed and radioactivity measured on a gamma counter. The percent of the injected dose per gram of tissue (% ID/g) was calculated by dividing the counts of ^64Cu/g of tissue by the total counts of the injected dose, based on an aliquot of the injected dose, with correction for radioactive decay. Tissues were later homogenized in nitric acid and analyzed for Gd concentration by inductively coupled plasma-mass spectrometry (ICP-MS).
substance,measurement,setting,value
Gd3-EP-2104R-Cu [Compound 21],"Concentration of 64Cu in thrombus relative to contralateral vessel, blood plasma, brain, or muscle",p<0.005,at least 4 fold
same,"Gd concentration in thrombus relative to contralateral vessel, blood plasma, brain, or muscle","ICP-MS, p<0.0001",over 6 fold

# Source: patent US9200017B2, “Multimodal imaging of fibrin” (The General Hospital Corporation, priority 2009, dated 2015)
